Target: T1, human macrophage elastase (HME/hMMP-12) (Homo sapiens, UniProt P39900)
T1 construct: purchased R&D Systems 917-MP
Experiment: In vitro HME inhibition test (standard or high-sensitivity)
Assay type: biochemical
Settings: in some cases mean values, rounded to two significant figures
Procedure: The potency of the compounds according to the invention with respect to HME (MMP-12) is determined in an in vitro inhibition test. The HME-mediated amidolytic cleavage of a suitable peptide substrate leads to an increase in fluorescent light therein. The signal intensity of the fluorescent light is directly proportional to the enzyme activity. The active concentration of a test compound at which half the enzyme is inhibited (50% signal intensity of the fluorescent light) is reported as the IC50 value.
In a 384 hole microtiter plate, in a total test volume of 41 μl, the test buffer (0.1 M HEPES pH 7.4, 0.15 M NaCl, 0.03 M CaCl2, 0.004 mM ZnCl2, 0.02 M EDTA, 0.005% Brij®), the enzyme (0.5 nM HME; R&D Systems, 917-MP, autocatalytic activation according to the manufacturer's instructions) and the intramolecularly quenched substrate [5 μM Mca-Pro-Leu-Gly-Leu-Glu-Glu-Ala-Dap(Dnp)-NH2; Bachem, M-2670] are incubated in the absence and presence of the test substance (as a solution in DMSO) at 37° C. for two hours. The fluorescence intensity of the test mixtures is measured (excitation […], emission 393 nm). The IC50 values are ascertained by plotting the fluorescent light intensity against the active ingredient concentration.
In this case, an enzyme concentration ten times lower is used (final concentration, e.g. 0.05 nM) in order to achieve an increased test sensitivity. The incubation period chosen for the test is correspondingly longer (e.g. 16 hours).

T1 sequence (P39900 106-470): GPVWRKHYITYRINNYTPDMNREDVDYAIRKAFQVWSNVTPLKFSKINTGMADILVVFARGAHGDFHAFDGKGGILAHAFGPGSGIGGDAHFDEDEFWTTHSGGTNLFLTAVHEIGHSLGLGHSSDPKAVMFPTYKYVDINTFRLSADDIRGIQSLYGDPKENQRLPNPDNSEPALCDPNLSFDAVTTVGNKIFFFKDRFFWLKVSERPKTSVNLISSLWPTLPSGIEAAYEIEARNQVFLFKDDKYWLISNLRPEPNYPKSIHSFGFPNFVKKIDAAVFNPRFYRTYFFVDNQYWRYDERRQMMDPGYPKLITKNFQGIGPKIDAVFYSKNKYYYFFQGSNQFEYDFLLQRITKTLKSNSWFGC

Row | IC50 | SMILES
1 | 4.1 nM | CC(C)CCCOc1ccc2cc(C(=O)CC(CCn3nnc4ccccc4c3=O)C(=O)O)oc2c1 (racemic) [Example 70, (+/−)-4-{6-[(4-Methylpentyl)oxy]-1-benzofur-2-yl}-4-oxo-2-[2-(4-oxo-1,2,3-benzotriazin-3(4H)-yl)ethyl]butanoic acid]
2 | 3.1 nM | CC(C)CCCCOc1ccc2cc(C(=O)CC(CCn3nnc4ccccc4c3=O)C(=O)O)oc2c1 (racemic) [Example 72, (+/−)-4-{6-[(5-Methylhexyl)oxy]-1-benzofur-2-yl}-4-oxo-2-[2-(4-oxo-1,2,3-benzotriazin-3(4H)-yl)ethyl]butanoic acid]
3 | 0.66 nM | O=C(CC(CCn1nnc2ccccc2c1=O)C(=O)O)c1coc2cc(OCCC3CCCCC3)ccc12 (racemic) [Example 76, (+/−)-4-[6-(2-Cyclohexylethoxy)-1-benzofur-3-yl]-4-oxo-2-[2-(4-oxo-1,2,3-benzotriazin-3(4H)-yl)ethyl]butanoic acid]
4 | 2.9 nM | O=C(CC(CCn1nnc2ccccc2c1=O)C(=O)O)c1coc2cc(OCc3cccc(Cl)c3)ccc12 (racemic) [Example 77, (+/−)-4-{6-[(3-Chlorobenzyl)oxy]-1-benzofur-3-yl}-4-oxo-2-[2-(4-oxo-1,2,3-benzotriazin-3(4H)-yl)ethyl]butanoic acid]
5 | 2 nM | O=C(CC(CCn1nnc2ccccc2c1=O)C(=O)O)c1coc2cc(OCC3CCCC3)ccc12 (racemic) [Example 78, (+/−)-4-[6-(Cyclopentylmethoxy)-1-benzofur-3-yl]-4-oxo-2-[2-(4-oxo-1,2,3-benzotriazin-3(4H)-yl)ethyl]butanoic acid]
6 | 4 nM | O=C(CC(CCn1nnc2ccccc2c1=O)C(=O)O)c1coc2cc(OCc3ccccc3)ccc12 (racemic) [Example 84, (+/−)-4-[6-(Benzyloxy)-1-benzofur-3-yl]-4-oxo-2-[2-(4-oxo-1,2,3-benzotriazin-3(4H)-yl)ethyl]butanoic acid]
7 | 1.4 nM | CCCOc1ccc2c(C(=O)CC(CCn3nnc4ccccc4c3=O)C(=O)O)coc2c1 (racemic) [Example 86, (+/−)-4-Oxo-2-[2-(4-oxo-1,2,3-benzotriazin-3(4H)-yl)ethyl]-4-(6-propoxy-1-benzofur-3-yl)butanoic acid]
8 | 1.3 nM | O=C(CC(CCn1nnc2ccccc2c1=O)C(=O)O)c1coc2cc(OCc3ccc(Cl)c(Cl)c3)ccc12 (racemic) [Example 92, (+/−)-4-{6-[(3,4-Dichlorobenzyl)oxy]-1-benzofur-3-yl}-4-oxo-2-[2-(4-oxo-1,2,3-benzotriazin-3(4H)-yl)ethyl]butanoic acid]
9 | 0.6 nM | O=C(CC(CCn1nnc2ccccc2c1=O)C(=O)O)c1coc2cc(OCC3CCOCC3)ccc12 (racemic) [Example 95, (+/−)-4-Oxo-2-[2-(4-oxo-1,2,3-benzotriazin-3(4H)-yl)ethyl]-4-[6-(tetrahydro-2H-pyran-4-ylmethoxy)-1-benzofur-3-yl]butanoic acid]
10 | 0.4 nM | CCCCCCOc1ccc2c(C(=O)CC(CCn3nnc4ccccc4c3=O)C(=O)O)coc2c1 (racemic) [Example 98, (+/−)-4-[6-(Hexyloxy)-1-benzofur-3-yl]-4-oxo-2-[2-(4-oxo-1,2,3-benzotriazin-3(4H)-yl)ethyl]butanoic acid]
11 | 0.54 nM | O=C(CC(CCn1nnc2ccccc2c1=O)C(=O)O)c1coc2cc(OCCc3ccccc3)ccc12 (racemic) [Example 110, (+/−)-4-Oxo-2-[2-(4-oxo-1,2,3-benzotriazin-3(4H)-yl)ethyl]-4-[6-(2-phenylethoxy)-1-benzofur-3-yl]butanoic acid]

Row | SMILES | IC50
12 | CC(C)COc1ccc2c(C(=O)CC(CCn3nnc4ccccc4c3=O)C(=O)O)coc2c1 (racemic) [Example 104, (+/−)-4-(6-Isobutoxy-1-benzofur-3-yl)-4-oxo-2-[2-(4-oxo-1,2,3-benzotriazin-3(4H)-yl)ethyl]butanoic acid] | 1.1 nM
13 | CCCCOc1ccc2c(C(=O)CC(CCn3nnc4ccccc4c3=O)C(=O)O)coc2c1 (racemic) [Example 107, (+/−)-4-(6-Butoxy-1-benzofur-3-yl)-4-oxo-2-[2-(4-oxo-1,2,3-benzotriazin-3(4H)-yl)ethyl]butanoic acid] | 0.61 nM
